Legend:
Autotaxin [1] = molecular target: T1, Autotaxin (Homo sapiens, UniProt Q13822); assay: Inhibition of ATX in human plasma assessed as decrease in hydrolysis of lysophosphatidylcholine by measuring choline release after 24 hrs by horseradish peroxidase/choline oxidase-coupled assay; format: cell-free
[2] = Half life in CD1 mouse blood at 1 mg/kg, iv administered as bolus dose measured up to 7 hrs by UPLC/MS/MS spectrometry analysis; format: ADME, organism-based
[3] = Intrinsic clearance in CD1 mouse liver microsomes assessed per gram of liver at 1 uM in presence of NADPH regenerating system measured up to 45 mins by UPLC/MS/MS analysis; format: ADME; details: 0.75 h
[4] = Blood clearance in CD1 mouse at 1 mg/kg, iv administered as bolus dose measured up to 7 hrs by UPLC/MS/MS spectrometry analysis; format: ADME, organism-based
[5] = Volume of distribution at steady state in CD1 mouse at 1 mg/kg, iv administered as bolus dose measured up to 7 hrs by UPLC/MS/MS spectrometry analysis; format: ADME, organism-based; details: in vivo, read-out: Vdss
Autotaxin [6] = molecular target: T1, Autotaxin; assay: Inhibition of human recombinant ATX using Rac-1-Palmitoyl-glycero-3-phosphocholine as substrate incubated for 2 hrs using ADHP fluorogenic peroxidase substrate by horseradish peroxidase/choline oxidase-coupled assay
[7] = Intrinsic clearance in human liver microsomes assessed per gram of liver at 1 uM in presence of NADPH regenerating system measured up to 45 mins by UPLC/MS/MS analysis; format: ADME; details: 0.75 h
[8] = Half life in CD1 mouse blood at 0.5 mg/kg, iv administered as bolus dose measured up to 7 hrs by UPLC/MS/MS spectrometry analysis; format: ADME, organism-based
[9] = Volume of distribution at steady state in CD1 mouse at 0.5 mg/kg, iv administered as bolus dose measured up to 7 hrs by UPLC/MS/MS spectrometry analysis; format: ADME, organism-based; details: in vivo, read-out: Vdss
[10] = Blood clearance in CD1 mouse at 0.5 mg/kg, iv administered as bolus dose measured up to 7 hrs by UPLC/MS/MS spectrometry analysis; format: ADME, organism-based
Mus musculus [11] = assay: Reduction in plasma LPA C18:1 levels in Balb-c nu/nu mouse xenografted with human MDA-MB-231-luc cells at 30 to 100 mg/kg, po by UPLC/MS/MS analysis relative to control; format: functional
in vivo [12] = details: Balb-c nu/nu, mouse, blood, po, 100 mg/kg
[13] = Half life in Sprague-Dawley rat blood at 1 mg/kg, iv administered as bolus dose or 3 mg/kg, po administered via gastric gavage measured up to 20 hrs by UPLC/MS/MS spectrometry analysis; format: ADME, organism-based
[14] = Half life in Balb-c nu/nu mouse blood at 30 mg/kg, po measured up to 7 hrs by UPLC/MS/MS spectrometry analysis; format: ADME, organism-based
[15] = AUC in Balb-c nu/nu mouse at 30 mg/kg, po measured up to 7 hrs by UPLC/MS/MS spectrometry analysis; format: ADME, organism-based; design: time < 7 hr, dose 30 mg/kg, route oral; details: in vivo
Autotaxin [16] = molecular target: T1, Autotaxin; assay: Inhibition of ATX in human plasma assessed as decrease in LPA C18:1 levels after 24 hrs by horseradish peroxidase/choline oxidase-coupled assay
[17] = Half life in Balb-c nu/nu mouse blood at 100 mg/kg, po measured up to 7 hrs by UPLC/MS/MS spectrometry analysis; format: ADME, organism-based
Mus musculus [18] = assay: Reduction in plasma LPA C18:2 levels in Balb-c nu/nu mouse xenografted with human MDA-MB-231-luc cells at 30 to 100 mg/kg, po by UPLC/MS/MS analysis relative to control; format: functional
[19] = Intrinsic clearance in rat liver microsomes assessed per gram of liver; format: ADME
Mus musculus [20] = species: Mus musculus; assay: animal or person; details: Balb-c, Plasma
Description: Reduction in plasma LPA C18:1 levels in po dosed Balb-c nu/nu mouse xenografted with human MDA-MB-231-luc cells by UPLC/MS/MS analysis

[21] = Cmax in Balb-c nu/nu mouse at 30 mg/kg, po measured up to 7 hrs by UPLC/MS/MS spectrometry analysis; format: ADME, organism-based; design: dose 30 mg/kg, route oral; details: in vivo
[22] = Half life in Balb-c nu/nu mouse blood at 10 mg/kg, po measured up to 7 hrs by UPLC/MS/MS spectrometry analysis; format: ADME, organism-based
[23] = AUC in Balb-c nu/nu mouse at 100 mg/kg, po measured up to 7 hrs by UPLC/MS/MS spectrometry analysis; format: ADME, organism-based; design: dose 100 mg/kg, time < 7 hr, route oral; details: in vivo
[24] = AUC in Balb-c nu/nu mouse at 10 mg/kg, po measured up to 7 hrs by UPLC/MS/MS spectrometry analysis; format: ADME, organism-based; design: time < 7 hr, dose 10 mg/kg, route oral; details: in vivo
[25] = Cmax in Balb-c nu/nu mouse at 10 mg/kg, po measured up to 7 hrs by UPLC/MS/MS spectrometry analysis; format: ADME, organism-based; design: dose 10 mg/kg, route oral; details: in vivo
in vivo [26] = details: Sprague-Dawley, rat, po, 3 mg/kg
Mus musculus [27] = assay: Reduction in plasma LPA C16:0 levels in Balb-c nu/nu mouse xenografted with human MDA-MB-231-luc cells at 30 to 100 mg/kg, po by UPLC/MS/MS analysis relative to control; format: functional
Mus musculus [28] = assay: Toxicity in Balb-c nu/nu mouse at 100 mg/kg, po bid administered for 5 days; format: organism-based; details: in vivo, 120 h
Mus musculus [29] = species: Mus musculus; assay: animal or person; details: Balb-c, Plasma; remark: listed apart in the source
Description: Reduction in plasma LPA C16:0 levels in po dosed Balb-c nu/nu mouse xenografted with human MDA-MB-231-luc cells by UPLC/MS/MS analysis

[30] = Fraction unbound in mouse plasma; format: ADME, cell-free
Mus musculus [31] = species: Mus musculus; assay: animal or person; details: Balb-c, Plasma; remark: listed apart in the source
Description: Reduction in plasma LPA C18:2 levels in po dosed Balb-c nu/nu mouse xenografted with human MDA-MB-231-luc cells by UPLC/MS/MS analysis

[32] = Fraction unbound in rat plasma; format: ADME, cell-free
Mus musculus [33] = species: Mus musculus; assay: animal or person; details: Balb-c, Plasma; remark: listed apart in the source
Description: Reduction in plasma LPA C20:4 levels in po dosed Balb-c nu/nu mouse xenografted with human MDA-MB-231-luc cells by UPLC/MS/MS analysis

[34] = Cmax in Balb-c nu/nu mouse at 100 mg/kg, po measured up to 7 hrs by UPLC/MS/MS spectrometry analysis; format: ADME, organism-based; design: dose 100 mg/kg, route oral; details: in vivo
[35] = Blood clearance in Sprague-Dawley rat at 1 mg/kg, iv administered as bolus dose measured up to 20 hrs by UPLC/MS/MS spectrometry analysis; format: ADME, organism-based
in vivo [36] = details: Balb-c nu/nu, mouse, blood, po, 30 mg/kg
Mus musculus [37] = assay: Reduction in plasma LPA C20:4 levels in Balb-c nu/nu mouse xenografted with human MDA-MB-231-luc cells at 30 to 100 mg/kg, po by UPLC/MS/MS analysis relative to control; format: functional

COc1ccc(Cn2c(CCC(=O)N[C@@H](C)c3ccc(Cl)cc3)nc3cccnc32)cc1
IC50 (Autotaxin [1]): 215 nM

C[C@H](NC(=O)NCc1nc2cccnc2n1Cc1ccc(F)cc1)c1ccc(F)cc1
half-life [2]: 9 min
CLH [3]: 10 mL/min/g
clearance [4]: 67 mL/min/kg
Vd [5]: 0.3 L/kg
IC50 (Autotaxin [1]): 1050 nM

C[C@H](NC(=O)CCc1nc2cccnc2n1Cc1ccc(OC(F)F)cc1)c1ccc(Cl)cc1
half-life [2]: 22.2 min
IC50 (Autotaxin [6]): 2 nM
CLH [3]: 52.8 mL/min/g
clearance [4]: 62 mL/min/kg
Vd [5]: 0.4 L/kg
IC50 (Autotaxin [1]): 44 nM

O=C(CCc1nc2cccnc2n1Cc1ccccc1)NCc1ccc(Cl)cc1
CLH [3]: 15.3 mL/min/g
IC50 (Autotaxin [1]): 5800 nM

C[C@H](NC(=O)COc1nc2cccnc2n1Cc1ccc(F)cc1)c1ccc(F)cc1
CLH [3]: 15.6 mL/min/g
IC50 (Autotaxin [1]): 821 nM

CS(=O)(=O)c1ccc(CNC(=O)CCc2nc3cccnc3n2Cc2ccccc2)cc1
IC50 (Autotaxin [6]): 6770 nM

O=C(CCc1nc2cccnc2n1Cc1ccccc1)NCc1ccccc1F
IC50 (Autotaxin [6]): 1250 nM

O=C(CCc1nc2cccnc2n1Cc1ccccc1)NCC1CCCCC1
IC50 (Autotaxin [6]): 444 nM
CLH [3]: 30.8 mL/min/g
IC50 (Autotaxin [1]): 9700 nM
CLH [7]: 17.4 mL/min/g

O=C(CCc1nc2cccnc2n1Cc1ccccc1)NCc1ccc(F)cc1
CLH [3]: 23.9 mL/min/g
CLH [7]: 41.2 mL/min/g

COc1cccc(CNC(=O)CCc2nc3cccnc3n2Cc2ccccc2)c1
IC50 (Autotaxin [6]): 2970 nM

C[C@H](NC(=O)CCc1nc2ccncc2n1Cc1ccc(OC(F)(F)F)cc1)c1ccc(F)cc1
IC50 (Autotaxin [1]): 32 nM

O=C(CCc1nc2cccnc2n1Cc1ccccc1)NCc1ccsc1
IC50 (Autotaxin [6]): 2430 nM

C[C@H](NC(=O)COc1nc2cccnc2n1Cc1ccc(OC(F)(F)F)cc1)c1ccc(Cl)cc1
half-life [8]: 12 min
CLH [3]: 10.8 mL/min/g
Vd [9]: 0.4 L/kg
clearance [10]: 78 mL/min/kg
IC50 (Autotaxin [1]): 99 nM

C[C@H](NC(=O)C[S+]([O-])c1nc2cccnc2n1Cc1ccc(OC(F)(F)F)cc1)c1ccc(F)cc1 (stereo in doubt; 26a)
half-life [2]: 13.2 min
IC50 (Autotaxin [6]): 10 nM
CLH [3]: 28.6 mL/min/g
clearance [4]: 82 mL/min/kg
Vd [5]: 0.2 L/kg
IC50 (Autotaxin [1]): 178 nM

C[C@H](NC(=O)C[S+]([O-])c1nc2cccnc2n1Cc1ccc(OC(F)(F)F)cc1)c1ccc(F)cc1 (stereo in doubt; 26b)
IC50 (Autotaxin [6]): 178 nM
CLH [3]: 19.8 mL/min/g
IC50 (Autotaxin [1]): 207 nM

C[C@H](NC(=O)CCc1nc2cccnc2n1Cc1ccc(OC(F)(F)F)cc1)c1ccc(Cl)cc1 [CAMBRITAXESTAT]
half-life [2]: 60 min
IC50 (Autotaxin [6]): 1 nM
%max (Mus musculus [11]): 89 - 93%
bioavailability at 7 h (in vivo [12]): 75%
half-life [13]: 324 min
half-life [14]: 54 min
AUC at 7 h [15]: 15.2 µM·h
IC50 (Autotaxin [16]): 38 nM
half-life [17]: 78 min
%max (Mus musculus [18]): 89 - 93%
CLH [19]: 15 mL/min/g
EC50 (Mus musculus [20]): 13 nM
Cmax [21]: 10.9 µM
half-life [22]: 84 min
AUC at 7 h [23]: 59.3 µM·h
AUC at 7 h [24]: 3.2 µM·h
Cmax [25]: 3.8 µM
bioavailability at 20 h (in vivo [26]): 28%
%max (Mus musculus [27]): 89 - 93%
CLH [3]: 44.1 mL/min/g
Activity (Mus musculus [28]): Non-Toxic
EC50 (Mus musculus [29]): 8 nM
fraction unbound [30]: 0.018
EC50 (Mus musculus [31]): 30 nM
clearance [4]: 41 mL/min/kg
fraction unbound [32]: 0.02
EC50 (Mus musculus [33]): 46 nM
Cmax [34]: 18.1 µM
clearance [35]: 19 mL/min/kg
bioavailability at 7 h (in vivo [36]): 64%
Vd [5]: 1.3 L/kg
%max (Mus musculus [37]): 89 - 93%
IC50 (Autotaxin [1]): 14 to 24 nM
CLH [7]: 9.4 mL/min/g

From ChEMBL document CHEMBL3864162, “Discovery of potent inhibitors of the lysophospholipase autotaxin” (Bioorg Med Chem Lett, 2016)
